# Reference: patent publication US20120282245A1, “BIOMARKERS AND ASSAYS FOR THE TREATMENT OF CANCER” (BIOGEN IDEC MA INC., priority 2006, published 2012)
# Experiments:
# [1] = test system: canonical NFκB1 pathway; assay: Western blot for phosphorylated IκBα and RelA (canonical NFκB1 activation); assay type: cell-based; conditions: DLD-1 and WiDr cells, TNFα 20 ng/ml
# Protocol: (§1) DLD-1 and WiDr adenocarcinoma cell lines were obtained from ATCC (Manassas, Va.), and cultured in MEM Earle's medium supplemented with 10% FBS. Antibodies against LTβR (N-15), TRAF3 (H-20 and H-122), TRAF2 (H-249), and NFκB2 (C-5) were obtained from Santa Cruz Biotechnology (Santa Cruz, Calif.). Antibodies against phosphorylated IκBα (5A5), phosphorylated RelA, and NIK were purchased from Cell Signaling Technologies (Beverly, Mass.).
# LTβR was activated using 100 ng/ml of a humanized bi-specific, activating antibody (BS-1) developed at Biogen Idec, Inc. TNFα was used at a concentration of 20 ng/ml. During stimulation, cells were kept in a 37° C. incubator for indicated times.
# (§2) Cells were treated for 10 minutes at 37° C. with media or activating antibody (BS-1) and washed twice in ice-cold PBS with protease and phosphatase inhibitors, followed by lysis by scraping in ice-cold lysis buffer [50 mM PIPES pH 6.8, 100 mM KCl, 2 mM MgCl2, 1 mM EGTA, 0.2% NP-40, and 10% Glycerol, supplemented with Complete EDTA-free protease inhibitor cocktail (Roche, Indianapolis, Ind.), 10 mM Sodium Fluoride, and 100 μM Sodium Orthovanadate]. […] Blots were developed using SuperSignal chemiluminescent detection substrates (Pierce), and detected on Biomax X-ray films (Kodak, Rochester, N.Y.) and/or directly on a Kodak ImageStation 2000R luminescence detector.
# [2] = test system: TRAF3; assay: Western blot for TRAF3 protein level; assay type: cell-based; conditions: DLD-1 cells; BS-1 100 ng/ml or TNFα 20 ng/ml
# Protocol: as §1
# as §2, with “Orthovanadate]. Lysates were centrifuged at 14000 RPM for 30 minutes at 4° C., and supernatants were pre-cleared with normal goat IgG-agarose beads (Sigma, St. Louis, Mo.) by incubating on a rotator at 4° C.” for “Orthovanadate].”, “detector. […]” for “detector.”
substance,measurement,setting,value
TNFα,activation of NFκB1,[1],identical in both cell-lines
same,TRAF3 level after stimulation,[2],increases the levels of TRAF3
